Test results: patent US7405063B2, “Biooxidation capabilities of Candida sp” (Cognis Corporation, priority 2000, dated 2008)
Marks after values point to notes of the source that are not given here.

Experiments:
C. tropicalis = assay: Toxicity tests of additional substrates (absorbance at 600 nm); format: cell-based; settings: for Absorbance at 600 nm: 24 hours, added without solvent
Experimental: Additional substrates were to be tested for bioconversion following a slightly different protocol than the one noted above in Example 3. Those substrates also had to be tested for toxicity similar to the test described in Example 2, to determine the highest concentration at which a substrate could be added to a culture broth without being toxic, inhibiting growth, or interfering with the bioconversion process. C. tropicalis was grown in the presence of the substrate at three different concentrations and growth was monitored spectrophotometrically. In contrast to Example 2, all test substrates were added directly to the culture medium without dissolving in solvent. The tests were completed as follows:
On the first day, H5343 was grown in YPD medium (25.0 ml seed culture) overnight on a rotary shaker at 30° C. and 250 rpm. The next day 1.0 ml of the seed culture was used to inoculate a new flask of 50 ml YPD. This culture was grown overnight on a rotary shaker at 30° C. and 250 rpm. […]
Two control flasks were each inoculated with H5343 in 25 ml YPD. All flasks were incubated on a rotary shaker at 30° C. and 250 rpm.
After 24 hours incubation, the absorbance at 600 nm of the test and control flask cultures was determined, using uninoculated YPD broth as blank. Cultures were diluted so that the OD^600 nm measured between 0.15 and 0.3.
For strongly inhibitory substrates, a concentration of 0.1-0.2% was chosen for the bioconversion tests.

[1] = system: C. tropicalis strain H5343; assay: Toxicity tests of substrates (growth by absorbance at 600 nm, streak plates); format: cell-based; settings: for ABS 600.0 nm: 48 h, 30° C., dilution in YPD 1:100
Experimental: The toxicity test used here was similar to that used for the solvents described in Example 1. The goal was to determine the highest concentration at which a substrate could be added to a culture broth without being toxic, inhibiting growth, or interfering with the bioconversion process. C. tropicalis strain H5343 was grown in the presence of the substrate at different concentrations and growth was monitored spectrophotometrically. In order to determine if the substrate was lethal or was simply inhibiting growth, the cultures were examined under the microscope and streak plates of YPD and LB agar were prepared. Contamination of the culture with an unwanted organism could also be detected using this approach.
6 ml was transferred to the first tube and 3 ml to the rest. 1% substrate was added to the first tube and then serially diluted to give concentrations from 1% to 0.015%. Since the last tube was initially empty, the concentration in the last two tubes was the same. […] As a growth-control one culture without substrate was inoculated.
To determine if contamination had occurred, each culture was examined under the microscope and streak plates of both YPD and LB were made from the 1% and the inoculated 0.015% tube.

[2] = substrate concentration 0.01563%
[3] = substrate concentration 0.0313%

SMILES | Absorbance at 600 nm (C. tropicalis; substrate concentration 0.1%) | Absorbance at 600 nm (C. tropicalis; substrate concentration 0.5%) | Absorbance at 600 nm (C. tropicalis; substrate concentration 1.0%) | ABS 600.0 nm [1, 2] | ABS 600.0 nm [1, 3] | ABS 600.0 nm ([1]; substrate concentration 0.063%) | ABS 600.0 nm ([1]; substrate concentration 0.13%) | ABS 600.0 nm ([1]; substrate concentration 0.25%) | ABS 600.0 nm ([1]; substrate concentration 0.5%) | ABS 600.0 nm ([1]; substrate concentration 1%) | also measured
CCCCCCCCCCCCCCC(O)CO (centres unmarked) [1,2-Hexadecanediol] | 3.103 | 3.033 | 2.013 | – | – | – | – | – | – | – | –
CCCCCCCCCCCCO [1-Dodecanol] | – | – | – | 0.000 | 0.000 | 0.000 | 0.004 | 0.032** | 0.013** | 0.267** | –
C=CCCCCCCCCCCCCCC [1-Hexadecene] | 38.99 | 35.33 | 37.93 | – | – | – | – | – | – | – | –
C=CCCCCCCCCCCCCCCCC [1-Octadecene] | 34.93 | 36.33 | 34.7 | – | – | – | – | – | – | – | –
CCCCCCC(CO)CCCC (centres unmarked) [2-Butyl-1-octanol] | 10.53 | 8.973 | 6.213 | – | – | – | – | – | – | – | –
CCCCC(CC)C(=O)O (centres unmarked) [2-Ethylhexanoic acid] | – | – | – | 0.099 | 0.051 | 0.000 | 0.000 | 0.000 | 0.000 | 0.000 | –
CCCCCCCCCC(CCCCCCC)C(=O)O (centres unmarked) [2-Heptylundecanoic acid] | – | – | – | 0.082 | 0.077 | 0.077 | 0.043 | – | 0.048 | 0.268 | –
CCCCCCCCC(CCCCCC)C(=O)O (centres unmarked) [2-Hexydecanoic acid, 2-hexyldecanoic acid] | 27.73 | 35.33 | 41.53 | – | – | – | – | – | – | – | –
CCCCC(=O)C(C)C [2-Methyl-3-heptanone] | – | – | – | – | – | – | – | – | – | – | Absorbance at 600 nm (C. tropicalis; substrate concentration 0.06%): 19.2; Absorbance at 600 nm (C. tropicalis; substrate concentration 0.3%): 0.099; Absorbance at 600 nm (C. tropicalis; substrate concentration 0.6%): 0.125
CCCCCCC(C)O (centres unmarked) [2-Octanol] | 0.250 | 0.235 | 0.285 | – | – | – | – | – | – | – | Toxic at (concentration) (C. tropicalis; Phase II screening summary): Toxic at 0.1%
CCCCC(CC)C1OCCN1CCCC (centres unmarked) [3-Butyl-(ethylpentyl)oxazolidine, 3-Butyl-2(1-ethylpentyl)oxazolidine] | – | – | – | – | – | – | – | – | – | – | Absorbance at 600 nm (C. tropicalis; substrate concentration 0.06%): 12.5; Absorbance at 600 nm (C. tropicalis; substrate concentration 0.3%): 0.245; Absorbance at 600 nm (C. tropicalis; substrate concentration 0.6%): 1.18
CCCCCCc1ccsc1 [3-Hexylthiophene] | 0.933 | 1.033 | 1.223 | – | – | – | – | – | – | – | –
CCCCCC#CCCCCC [6-Dodecyne] | – | – | – | 0.125 | 0.083 | 0.074 | 0.071 | 0.073 | 0.071 | 0.066 | –
CCCCCC(O)CCCCC [6-Undecanol] | – | – | – | 0.000** | 0.000** | 0.000** | 0.000** | 0.000** | 0.000** | 0.000** | –
CCCCCCCCC(=O)CCCCCCCC [9-Heptadecanone] | – | – | – | 0.100 | 0.120 | 0.064 | 0.103 | 0.120 | 0.073 | 0.004** | –
CCCCCCC(O)CCCCCCCCCCC(=O)O (centres unmarked) [12-Hydroxystearic acid] | – | – | – | – | – | – | – | – | – | 0.120 | –
CCCCC1CCCCC1 [Butylcyclohexane] | 22.03 | 21.13 | 20.33 | – | – | – | – | – | – | – | –
CCCCC(C(=O)O)C(=O)O [Butylmalonic Acid] | 27.43 | 27.13 | 8.53 | – | – | – | – | – | – | – | –

SMILES | Absorbance at 600 nm (C. tropicalis; substrate concentration 0.1%) | Absorbance at 600 nm (C. tropicalis; substrate concentration 0.5%) | Absorbance at 600 nm (C. tropicalis; substrate concentration 1.0%) | ABS 600.0 nm [1, 2] | ABS 600.0 nm [1, 3] | ABS 600.0 nm ([1]; substrate concentration 0.063%) | ABS 600.0 nm ([1]; substrate concentration 0.13%) | ABS 600.0 nm ([1]; substrate concentration 0.25%) | ABS 600.0 nm ([1]; substrate concentration 0.5%) | ABS 600.0 nm ([1]; substrate concentration 1%) | also measured
CCCC[S+]([O-])CCCC [Butylsulfoxide, dibutylsulfoxide] | 15.63 | 11.37 | 5.81 | – | – | – | – | – | – | – | –
C=CCCCCCCCCCC [C12 a-Olefin] | – | – | – | 0.077 | 0.119 | 0.119 | 0.082 | 0.080 | 0.080 | 0.082 | –
C=CCCCCCCCCCCCC [C14 a-Olefin, 1-tetradecene] | – | – | – | 0.061 | 0.084 | 0.085 | 0.097 | 0.115 | 0.084 | 0.087 | –
C=CCCCCCCCCCC [Dodecene] | – | – | – | 0.088 | 0.055 | 0.079 | 0.050 | 0.053 | 0.032 | 0.026 | –
CCCCCCCCCCCCN [Dodecyclamine, Dodecylamine] | – | – | – | 0.000 | 0.000 | 0.000 | 0.000 | 0.000 | 0.000 | 0.000 | Toxic at (concentration) ([1]; Phase I screening summary): Toxic at 0.01%
C=COCCCCCCCCCCCC [Dodecylvinylether] | 20.43 | 12.63 | 7.33 | – | – | – | – | – | – | – | –
CCC1CCCCC1 [Ethylcyclohexane] | – | – | – | – | – | – | – | – | – | – | Absorbance at 600 nm (C. tropicalis; substrate concentration 0.06%): 9.45; Absorbance at 600 nm (C. tropicalis; substrate concentration 0.3%): 2.03; Absorbance at 600 nm (C. tropicalis; substrate concentration 0.6%): 16.5
CCCCCCCC/C=C\CCCCCCCCO [HD-Ocenol, oleyl alcohol] | – | – | – | 0.093 | 0.087 | 0.076 | 0.115 | 0.097 | 0.085 | 0.087 | –
CCCCCCCCCCCCCCCCOC(C)=O [Hexadecyl acetate] | – | – | – | 0.110 | 0.104 | 0.089 | 0.083 | 0.110 | 0.103 | 0.155 | –
CCCCCCCCCCCCCCCCOC(=O)CCCCCCCC [Hexadecyl pelargonate] | – | – | – | 0.112 | 0.095 | 0.075 | 0.083 | 0.103 | 0.102 | 0.080 | –
CCCCCCOCCCCCC [Hexyl Ether, Dihexyl Ether] | 12.85 | 13.21 | 3.33 | – | – | – | – | – | – | – | –
C=C[C@](C)(O)CC[C@@H]1[C@@]2(C)CCCC(C)(C)[C@@H]2CC[C@@]1(C)O [Indu-Extrakt-sclareol, sclareol] | – | – | – | 0.083 | 0.100 | 0.157 | 0.106 | 0.110 | 0.092 | 0.083 | –
CC1CCCCC1 [Methylcyclohexane] | – | – | – | – | – | – | – | – | – | – | Absorbance at 600 nm (C. tropicalis; substrate concentration 0.06%): 13.7; Absorbance at 600 nm (C. tropicalis; substrate concentration 0.3%): 15.6; Absorbance at 600 nm (C. tropicalis; substrate concentration 0.6%): 0.16
C=C(C)[C@H]1CC=C(C)CC1 [R(+) limonene] | – | – | – | 0.123 | 0.117 | 0.106 | 0.007 | 0.000 | 0.000 | 0.000 | –
C=C(C)[C@@H]1CC=C(C)CC1 [S(−) limonene] | – | – | – | 0.104 | 0.094 | 0.011 | 0.002 | 0.000 | 0.002 | 0.002 | –
C/C=C/CCCCCC [trans-2-nonene] | – | – | – | 0.112 | 0.100 | 0.105 | 0.066 | 0.000 | 0.000 | 0.000 | –
CCCCCC/C=C/CCCCCC [trans-7-tetradecene] | – | – | – | 0.117 | 0.106 | 0.112 | 0.104 | 0.103 | 0.107 | 0.095 | –
